As a reminder, the EC50 is the concentration at which the effect is half-maximal.

human GPR119, sequence (Q8TDV5 whole entry): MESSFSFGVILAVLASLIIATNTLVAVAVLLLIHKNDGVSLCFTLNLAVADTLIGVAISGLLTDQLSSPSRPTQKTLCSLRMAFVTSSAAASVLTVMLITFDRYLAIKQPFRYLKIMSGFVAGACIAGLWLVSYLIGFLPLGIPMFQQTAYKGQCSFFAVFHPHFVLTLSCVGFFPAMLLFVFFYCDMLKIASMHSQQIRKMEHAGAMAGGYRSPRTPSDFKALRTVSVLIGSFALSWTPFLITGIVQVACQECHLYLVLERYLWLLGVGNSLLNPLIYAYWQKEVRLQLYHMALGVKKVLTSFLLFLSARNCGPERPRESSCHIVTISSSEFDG

For the first assay, the target named is human GPR119 (Homo sapiens (Human), UniProt Q8TDV5). The experiment in a line: AlphaScreen cAMP assay in MIN6 cells stably transfected with human GPR119. The format is cell-based. To be noted: Min-6/hGPR119 cells, 45 min incubation at room temperature. The method in brief:
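MIN6 cells stably expressing human GPR119 were seeded at 10000 cells/well for 24 h. Compounds were then applied in pH 7.4 buffer with 0.5 mM IBMX, 0.1% BSA and 1% DMSO for 45 min at about 20 °C. Intracellular cAMP was measured by AlphaScreen.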
(In general: Bead proximity is the source of the signal in Alpha formats.)
Compound `CC(C)COC(=O)N1CCC(N(C(=O)c2ccc(-c3cnco3)cc2)C2CC2)CC1` [Example 125, 4-[Cyclopropyl-(4-oxazol-5-yl-benzoyl)-amino]-piperidine-1-carboxylic acid isobutyl ester] gave a half-maximal effective concentration (EC50) of 45 nM.

Take `O=C(OCc1ccccc1)N1CCC(N(C(=O)c2ccc(-c3cnco3)cc2)C2CC2)CC1` [Example 126, 4-[Cyclopropyl-(4-oxazol-5-yl-benzoyl)-amino]-piperidine-1-carboxylic acid benzyl ester]: it took 128 nM to reach a half-maximal effect (EC50). `C=CCOC(=O)N1CCC(N(C(=O)c2ccc(-c3cnco3)cc2)C2CC2)CC1` [Example 127, 4-[Cyclopropyl-(4-oxazol-5-yl-benzoyl)-amino]-piperidine-1-carboxylic acid allyl ester] showed a concentration giving a half-maximal response (EC50) of 102 nM.

For the compound `O=C(OC1CCCC1)N1CCC(N(C(=O)c2ccc(-c3cnco3)cc2)C2CC2)CC1` [Example 128, 4-[Cyclopropyl-(4-oxazol-5-yl-benzoyl)-amino]-piperidine-1-carboxylic acid cyclopentyl ester], the response was half-maximal at 34 nM (EC50). In the case of `CC(C)OC(=O)N1CCC(N(C(=O)c2ccc(-c3ccc(C(N)=O)cc3)cc2)C2CC2)CC1` [Example 129, 4-[(4′-Carbamoyl-biphenyl-4-carbonyl)-cyclopropyl-amino]-piperidine-1-carboxylic acid isopropyl ester], the EC50 is 113 nM.

Regarding `CC(C)(OC(=O)N1CCC(N(C(=O)c2ccc(-c3cnco3)cc2)C2CC2)CC1)C(F)(F)F` [Example 130, 4-[Cyclopropyl-(4-oxazol-5-yl-benzoyl)-amino]-piperidine-1-carboxylic acid 2,2,2-trifluoro-1,1-dimethyl-ethyl ester], a half-maximal effect (EC50) was put at 10 nM.

The target of the next assay is mutant form of the human GPR119 receptor (Homo sapiens (Human), UniProt Q8TDV5, S329A/T327A). The experiment in a line: LANCE cAMP-384 assay in HEK293 cells stably expressing a mutant form of human GPR119. To be noted: 20 min at 37° C. The format is cell-based.
mutant form of the human GPR119 receptor, sequence (Q8TDV5 other isoform, or with tags, fused parts or gaps T327A/S329A): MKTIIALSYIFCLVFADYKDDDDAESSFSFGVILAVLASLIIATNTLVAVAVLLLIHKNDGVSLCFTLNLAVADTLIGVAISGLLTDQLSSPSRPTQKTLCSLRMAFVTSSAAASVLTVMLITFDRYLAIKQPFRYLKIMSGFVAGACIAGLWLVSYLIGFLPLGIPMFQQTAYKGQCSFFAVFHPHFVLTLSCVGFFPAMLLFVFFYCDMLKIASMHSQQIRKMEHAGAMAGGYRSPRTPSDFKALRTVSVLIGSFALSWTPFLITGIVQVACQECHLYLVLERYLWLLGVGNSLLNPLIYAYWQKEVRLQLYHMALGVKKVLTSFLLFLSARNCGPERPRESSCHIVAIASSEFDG
Compound `CC(C)OC(=O)N1CC[C@H](N(C(=O)c2ccc(-n3cncn3)c(F)c2)C2CC2)[C@H](F)C1` (single isomer, unassigned) [Example 48] displayed an EC50 of 42 nM.

In the case of `CC(C)OC(=O)N1CC[C@@H](N(C(=O)c2ccc(-n3cncn3)c(F)c2)C2CC2)[C@@H](F)C1` (single isomer, unassigned) [Example 50], the concentration for a half-maximal effect (EC50) was found to be 1020 nM. Still for that read-out and setting: the result for `CC(C)OC(=O)N1CCC(N(C(=O)c2ccc(-n3cncn3)c(F)c2)C2CC2)CC1` [Example 49, 4-[Cyclopropyl-(3-fluoro-4-[1,2,4]triazol-1-yl-benzoyl)-amino]-piperidine-1-carboxylic acid isopropyl ester] reads 338 nM. `Cc1nccn1-c1ccc(C(=O)N(C2CC2)C2CCN(C(=O)OC(C)C)CC2)cc1` [Example 51, 4-{Cyclopropyl-[4-(2-methyl-imidazol-1-yl)-benzoyl]-amino}-piperidine-1-carboxylic acid isopropyl ester] registered an EC50 of 1580 nM.

Source of the values: patent publication US9469631B2 (Boehringer Ingelheim International GmbH, priority 2012, dated 2016).
